Test results from patent publication US20110224221A1, “HEMATOPOIETIC PROTECTION AGAINST IONIZING RADIATION USING SELECTIVE CYCLIN-DEPENDENT KINASE 4/6 INHIBITORS” (priority 2008, published 2011).
“Also recorded” adds a separate entry of the source.

Columns and labels:
[1] = system: hematopoietic stem and progenitor cells; assay: HSPC proliferation in vivo (BrdU incorporation, Ki67) by flow cytometry; design: species or system mice
Method: BrdU Incorporation in vivo: Mice were treated once daily for 2 days with PD 0332991 at 150 mg/kg. 5-Bromo-2-deoxyuridine (BrdU) was given 24 hours after the initiation of PD 0332991 and continued until the animals were sacrificed for analysis: 24 hours of BrdU by intraperitoneal (i.p.) injection every 6 hours at a dose of 1 mg.
For HSPC proliferation experiments, mice received daily oral gavage with PD0332991 for 2 days with 1 mg BrdU intraperitoneal injection every 6 hours for 24 hours prior to sacrifice. BM-MNC harvest and immunophenotyping was performed using RBC lysis, biotin-conjugated Lin-panel incubation (Invitrogen Corporation, Carlsbad, Calif., United States of America), paramagnetic bead-conjugated straptavidin (Miltinyi Biotec, Bergisch Gladbach, Germany) incubation, and magnetic depletion using an AutoMACS (Miltinyi Biotec, Bergisch Gladbach, Germany). At least 2×10^6 Lin-depleted cells per mouse were incubated with fluorescently labeled antibodies against cell surface antigens used to identify hematopoietic progenitor subpopulations as previously described (see Passegue et al., J. Exp. Med., 202, 1599-1611 (2005); and Kiel et al., Cell, 121, 1109-1121 (2005): CD34-FITC, CD16/32-PacificBlue, IL7Ra-PE-Cy5, and cKit-APC-Alexa750 from eBiosciences, Inc. (San Diego, Calif., United States of America); Sca1-PE-Cy7, CD150-PE-Cy5, and CD48-PacificBlue from BioLegend (San Diego, Calif., United States of America); and Aqua Live/Dead viability dye (Invitrogen Corporation, Carlsbad, Calif., United States of America). Streptavidin-PE-TexasRed (Invitrogen Corporation, Carlsbad, Calif., United States of America) was used to confirm efficiency of lineage-depletion. After cell surface staining, cells were fixed, permeabilized, and stained with antibodies against Ki67-FITC, BrdU-APC, and caspase3-PE (BD Biosciences Pharmingen, San Diego, Calif., United States of America).
In all experiments, gating based on isotype controls was used as appropriate. Flow cytometry was performed using a CyAn ADP (Dako, Glostrup, Denmark) and analyzed with FlowJo software (Tree Star, Ashland, Oreg., United States of Ameria). For each bone marrow sample, a minimum of 200,000 cells were analyzed. For cell culture samples, a minimum of 20,000 cells were analyzed.
PD0332991, which is orally bioavailable, was administered to adult wild-type C57Bl/6 mice by oral gavage. […] See Passeque et al., J. Exp. Med., 202, 1599-1611 (2005); Wilson et al., Cell, 125, 1118-1129 (2008); and Kiel et al., Nature, 449, 238-U210 (2007).
2BrIC was solubilized for oral gavage using formulation #6 from the Hot Rod formulation kit (Pharmatek, Inc. San Diego, Calif., United States of America) and given by oral gavage 2 hours prior to BrdU injection. Also, an additional dose was given at the time of BrdU injection to sustain the G1 arrest in bone marrow.

[2] = system: human melanoma cell line WM2664; assay: Cell cycle analysis (BrdU incorporation in vitro), WM2664; assay type: cell-based; conditions: WM2664, 24 hours exposure
From the text: FIG. 3A is a set of graphs showing the dose-response curves for cycle analysis in both cyclin-dependent kinase 4/6 (CKD4/6)-dependent cells (human telomerized human diploid fibroblasts (tHDFs, left-hand column of graphs) and a CDK4/6-dependent human melanoma cell line (WM2664, middle column of graphs)) and in CDK4/6-independent cells (a human retinoblastoma tumor suppressor protein (RB)-null melanoma cell line (A2058), right-hand column of graphs). […] The percentage of cells in the G1 phase is indicated by the data shown in the open triangles, while the percentage of cells in the S phase is shown by the data in the shaded circles and the percentage of cells in the G2/M phase is indicated by the data in the double “x”s.
FIG. 8 is a set of representative cell cycle dot-plots for cyclin-dependent kinase 4/6 (CDK4/6)-dependent (WM2664) human melanoma cells (top two rows) and CDK4/6-independent (A2058) human melanoma cells (bottom two rows) that had been treated with dimethyl sulfoxide (DMSO) as a control or with 300 nM, 1 μM, 3 μM, 10 μM or 30 μM of trans-4-[[6-ethylamino)-2-[[2-phenylmethyl)-1H-indol-5-yl]amino]-4-pyrimidinyl]amino]]-cyclohexanol (CINK4).
Cell Lines: KPTR1, KPTR4. and KPTR5 were derived from tumor-bearing TyrRAS+Ink4a/Arf−/− by standard procedures and cultured in RPMI+10% fetal bovine serum (FBS). Telomerized HDFs (tHDFs, also known as HS68) were cultured in DMEM+10% FBS with penicillin and streptomycin. The same conditions were used for A2058 and WM2664, human melanoma cell lines with known RB-pathway mutations: A2058 is RB-null, whereas WM2664 lacks p16^INK4a/Arf. See Shields, et al., Cancer Res., 67, 1502-1512 (2007). Cells were irradiated for indicated doses in a Rad Source Inc. (Alpharetta, Ga., United States of America) RS-2000 Biological Irradiator at 160 kV, 25.0 mA, at distance setting 1, with a dose rate of 103 rads/min.
BrdU Incorporation in vitro: Cells were plated and allowed to adhere overnight or at least 6 hours prior to adding CDK4/6 inhibitor at the indicated concentrations. Cells were grown for 24 hours in the presence of CDK4/6 inhibitor. 15 minutes prior to cell harvesting, 5-Bromo-2-deoxyuridine (BrdU) was added to the media at a final concentration of 10 μM. The cells were then washed, trypsinized, pelleted, fixed, permeabilized, stained, and measured on a flow cytometer as described in manufacturer directions for the BrdU Kit (BD Biosciences Pharmingen, San Diego, Calif., United States of America).
The proliferation of seven RB-deficient human small cell lung cancer lines was also resistant to the selective CDK4/6 inhibitors.

[3] = among oligopotent progenitors, 48 hours treatment

| Compound | incorporation of BrdU into MPP ([1]; Lin−Kit+Sca1+ cells, oral gavage 2 hours prior to and at BrdU injection, relative to formulation alone) | cell cycle effect [2] | proliferation in early HSPC (BrdU incorporation, Ki67) ([1]; 48 hours treatment) | proliferation of Lin−Kit−Sca1− and Lin+ cells ([1]; 48 hours treatment) | frequency of HSC doubly positive for expression of Ki67 and BrdU ([1]; HSC (Lin−Kit+Sca1+CD48−CD150+), 48 hours treatment, oral gavage, C57Bl/6) | proliferation of oligopotent progenitors ([1]; Lin−Kit+Sca1−, 48 hours treatment) | proliferation of multipotent progenitor cell compartment ([1]; MPP (Lin−Kit+Sca1+CD48−CD150−), 48 hours treatment) | proliferation of CMP and CLP [1, 3] | proliferation of GMP and MEP [1, 3] |
| --- | --- | --- | --- | --- | --- | --- | --- | --- | --- |
| O=C1NC(=O)c2c1c1c3ccccc3[nH]c1c1[nH]c3cc(Br)ccc3c21 [Compound 2BrIC, 2-bromo-12,13-dihydro-5H-indolo[2,3-a]pyrrolo[3,4]-carbazole-5,6-dione] | inhibited the incorporation of BrdU; also recorded: clearly reducing proliferation of the MPP | strong, reversible G1-arrest |  |  |  |  |  |  |  |
| CC(=O)c1c(C)c2cnc(Nc3ccc(N4CCNCC4)cn3)nc2n(C2CCCC2)c1=O [PD0332991, 6-acetyl-8-cyclopentyl-5-methyl-2-(5-piperazin-1-yl-pyridin-2-ylamino)-8H-pyrido-[2,3-d]-pyrimidin-7-one] |  | strong, reversible G1-arrest | clearly reduces proliferation | no change in proliferation | significantly decreased | modest inhibition of proliferation | more pronounced inhibition of proliferation | strongest effects | weaker effects |
